In experiment [1] the test system is Streptococcus pneumoniae. As to the kind of experiment: Antibacterial activity against penicillin-resistant Streptococcus pneumoniae 159 at 1 mM. The class given is functional, organism-based.
Experiment [2] can be described thus: Inhibition of Streptococcus pneumoniae 159 MurM.
Experiment [3] relates to Streptococcus pneumoniae. Kind of experiment: Inhibition of Streptococcus pneumoniae 159 MurM at 1 mM.

Data on 3 molecules can be found in ChEMBL document CHEMBL1140022, “Adenosine phosphonate inhibitors of lipid II: alanyl tRNA ligase MurM from Streptococcus pneumoniae” (Bioorg Med Chem Lett, 2007).

In general, IC50 refers to the midpoint of a concentration-inhibition curve.

The source made the active and inactive calls. No cut-off for these calls is given here.

With `CC(N)P(=O)(O)O[C@H]1C[C@H](n2cnc3c(N)ncnc32)O[C@@H]1CO` (some centres undefined), the outcome in experiment [1] was inactive. In experiment [2], the 50% inhibitory concentration (IC50) came out at 100 µM.

Consider `COc1ccc(CC(N)C(=O)N[C@H]2[C@@H](O)[C@H](n3cnc4c(N(C)C)ncnc43)O[C@@H]2CO)cc1` (single isomer, unassigned), for which the result in experiment [3] was inactive.

Take `CC(N)P(=O)(O)O[C@@H]1[C@H](O)[C@@H](CO)O[C@H]1n1cnc2c(N)ncnc21` (some centres undefined): it took 780 µM to reach half-maximal inhibition in experiment [2] (IC50).
